Data: patent publication US20150025085A1, “Iron Chelators And Uses Thereof” (Varinel Inc., priority 2012, published 2015)
Where two headings read alike, the source gives them in different places.

How the values were obtained:
[1] = test system: clinical isolates of bacterial strains of A. baumannii; test: MIC by CLSI microdilution in CAMHB media; assay type: cell-based; settings: Acinetobacter baumannii, 24 h
Protocol: (§1) The minimal inhibitory concentration (MIC) of compound 4 was determined against standard strains of MDR bacteria and clinical isolates according to the guidelines of the Clinical and Laboratory Standards Institute (CLSI).
(§2) Individual MICs were determined following the microdilution method recommended by CLSI in cationic-adjusted Mueller-Hinton Broth (CAMHB), or M9 media. The MIC was defined as the lowest drug concentration that caused 100% inhibition of visible bacterial growth after 24 hours incubation. Tests were performed in triplicate. MIC of Compound 4 were determined for nosocomial ESKAPE pathogens (Enterococcus faecium, Staphylococcus aureus, Klebsiella pneumoniae, Acinetobacter baumannii, Pseudomonas aeruginosa, and Enterobacter species).
(§3) Tables l and 2 show the MIC of compound 4 determined in two different media for clinical isolates of bacterial strains of A. baumannii (AB) obtained from the Multidrug-resistant Organism Repository & Surveillance Network, USA.

[2] = test system: clinical isolates of bacterial strains of A. baumannii; test: MIC by CLSI microdilution in RPMI 1640 (low iron) media; assay type: cell-based, Acinetobacter baumannii; design: key to MIC of compound 4: NG = no growth; settings: for MIC: Acinetobacter baumannii
Protocol: as §1
as §2, with “Individual MICs were determined following the microdilution method recommended by CLSI in cationic-adjusted Mueller-Hinton Broth (CAMHB), or M9 media.” left out
as §3

A. baumannii strain 5711 = test: Growth curves (OD600) in CAMHB medium; assay type: cell-based, Acinetobacter baumannii; settings: various concentrations, dose-responsive
Text: (§4) It should be noted that the inhibition occurred in a dose-responsive manner.

[3] = Stability in aqueous solution; assay type: physicochemical
Text: as §4

bacterial infections = settings: described in PCT/US2012/023377 (WO 2012/106364); cited from earlier work
[4] = prior publications (WO 00/74664; WO 2004/041151); cited from earlier work
6-OHDA lesioned rats = settings: cited from earlier work; for activity (neuroprotection) against 6-OHDA in an animal model of Parkinson's disease: prior publications, Ben Shachar et al. 2004
[5] = test system: lactacystin-lesioned mice; settings: 5 mg/kg once a day i.p., 7 days before or after lactacystin microinjection; Zhu et al. 2007; cited from earlier work
[6] = strain AB3638, read-out: MIC of compound 4
[7] = strain AB3785, read-out: MIC of compound 4
[8] = strain AB3806, read-out: MIC of compound 4
[9] = strain AB3917, read-out: MIC of compound 4
[10] = strain AB4025, read-out: MIC of compound 4
[11] = strain AB4026, read-out: MIC of compound 4
[12] = strain AB4027, read-out: MIC of compound 4
[13] = strain AB4052, read-out: MIC of compound 4
[14] = strain AB4269, read-out: MIC of compound 4
[15] = strain AB4448, read-out: MIC of compound 4
[16] = strain AB4456, read-out: MIC of compound 4
[17] = strain AB4490, read-out: MIC of compound 4
[18] = strain AB4498, read-out: MIC of compound 4
[19] = strain AB4795, read-out: MIC of compound 4
[20] = strain AB4857, read-out: MIC of compound 4
[21] = strain AB4878, read-out: MIC of compound 4
[22] = strain AB4932, read-out: MIC of compound 4
[23] = strain AB4957, read-out: MIC of compound 4
[24] = strain AB4991, read-out: MIC of compound 4
[25] = strain AB5001, read-out: MIC of compound 4
[26] = strain AB5075, read-out: MIC of compound 4
[27] = strain AB5197, read-out: MIC of compound 4
[28] = strain AB5256, read-out: MIC of compound 4
[29] = strain AB5674, read-out: MIC of compound 4
[30] = strain AB5711, read-out: MIC of compound 4
[31] = rats, Ben Shachar et al., Neuropharmacology 46 (2004) 254-263

OCCN1CCN(CCc2ccc(O)c3ncccc23)CC1 [Compound 4, 5-(2-(4-(2-hydroxyethyl)piperazin-1-yl)ethyl)-8-quinolinol]
125 µg/mL: MIC [2, 22] | MIC [2, 23] | MIC [2, 28]
8 µg/mL: MIC [2, 24]
64 µg/mL: MIC [2, 6] | MIC [2, 13] | MIC [2, 15] | MIC [2, 18] | MIC [2, 20] | MIC [2, 21] | MIC [2, 26] | MIC [2, 30]
32 µg/mL: MIC [2, 7] | MIC [2, 8] | MIC [2, 9] | MIC [2, 10] | MIC [2, 11] | MIC [2, 12] | MIC [2, 14] | MIC [2, 16] | MIC [2, 17] | MIC [2, 19] | MIC [2, 25] | MIC [2, 27] | MIC [2, 29]
dramatically reduced: OD600 in growth curves (inhibition of growth) (A. baumannii strain 5711)
1000 µg/mL: MIC [1, 8] | MIC [1, 13]
highly stable: stability in aqueous solution [3]
antibacterial activity: antibacterial activity (bacterial infections)
NG: MIC of compound 4 ([2]; strain AB967) | MIC of compound 4 ([2]; strain AB2828) | MIC of compound 4 ([2]; strain AB3340) | MIC of compound 4 ([2]; strain AB3560) | MIC of compound 4 ([2]; strain AB3927)
500 µg/mL: MIC ([1]; strain AB967, read-out: MIC of compound 4) | MIC ([1]; strain AB2828, read-out: MIC of compound 4) | MIC ([1]; strain AB3340, read-out: MIC of compound 4) | MIC ([1]; strain AB3560, read-out: MIC of compound 4) | MIC [1, 6] | MIC [1, 7] | MIC [1, 9] | MIC ([1]; strain AB3927, read-out: MIC of compound 4) | MIC [1, 10] | MIC [1, 11] | MIC [1, 12] | MIC [1, 14] | MIC [1, 15] | MIC [1, 16] | MIC [1, 17] | MIC [1, 18] | MIC [1, 19] | MIC [1, 20] | MIC [1, 21] | MIC [1, 22] | MIC [1, 23] | MIC [1, 24] | MIC [1, 25] | MIC [1, 26] | MIC [1, 27] | MIC [1, 28] | MIC [1, 29] | MIC [1, 30]

C#CCN(C)Cc1ccc(O)c2ncccc12 [M30]
able to cross the BBB: ability to cross the BBB [4]
active: activity (neuroprotection) against 6-OHDA in an animal model of Parkinson's disease (6-OHDA lesioned rats)

OCCN1CCN(Cc2ccc(O)c3ncccc23)CC1 [VK28, 5-[4-(2-hydroxyethyl)piperazin-1-ylmethyl]-8-hydroxyquinoline]
significantly improved: behavioral performances [5]
no effect: basal striatal tissue monoamine concentrations (6-OHDA lesioned rats; [31])
active: activity (neuroprotection) against 6-OHDA in an animal model of Parkinson's disease (6-OHDA lesioned rats)
attenuated: lactacystin-induced DA neuron loss in SN [5] | lactacystin-induced iron accumulation in SN [5] | lactacystin-induced microglial activation in SN [5] | lactacystin-induced proteasomal inhibition in SN [5]
not be affected: striatal 5-HT, 5-HIAA and NE concentrations (6-OHDA lesioned rats; [31])
antibacterial activity: antibacterial activity (bacterial infections)
able to cross the BBB: ability to cross the BBB [4]
neuroprotection: activity (neuroprotection) against 6-OHDA in an animal model of Parkinson's disease (6-OHDA lesioned rats; listed as Vk-28)
